Like-named read-outs stand apart in the source and are kept apart here.
Legend:
[1] = test system: hippocampal kindled seizures; experiment: Rat Hippocampal Kindling Test (Interruption of Kindled State); type: in vivo; details: reference drugs; suppression at doses associated with toxicity
Procedure: In the present rapid hippocampal kindling model adult male Sprague-Dawley rats (300-400 g) were surgically implanted with bipolar electrodes placed in the hippocampus. […] One week later, the rats received 2-3 supra-threshold stimulations delivered every 30 min before treatment with test compound, to ensure stability of the behavioral seizure stage and after-discharge duration. Fifteen minutes after the last stimulation, a single dose of vehicle or test compound was administered i.p. (intraperitoneally). After 15 min, each rat was then stimulated every 30 min for 3 to 4 h. After each stimulation, individual seizure scores and after-discharge durations were recorded. The group mean±SEM were calculated for each parameter. Eight rats per dose and a minimum of four doses were used to establish an ED50 value. Efficacy was measured as the ability of a compound to modify the seizure score (severity of spread) and after-discharge duration (ADD; excitability) of the generalized seizures.
Thus, according to the theories presented in current literature (Ghaemi, S. N., Boiman, E. E., and Goodwin, F. K., Soc. of Bio. Psychiatry, (1999), vol. 45, pp 137-144; Stoll, A. L., and Severus, W. E., Harvard Rev. Psychiatry, July/August (1996), Vol. 4, No. 2, pp 77-89) a decrease in seizure score and/or ADD may also be predictive of the ability of a test compound to treat the cycling associated with bipolar disorder.

[2] = test system: CH3/HeJ mice; experiment: Tail Suspension Test (Acute); type: in vivo, mouse; details: for ED50: Mus musculus, po, 7 min; for Immobility Emax % of C / Mobility Emax % of C: p.o., CH3/HeJ mice, 7-min session
Procedure: In the tail suspension test (TST) for evaluating compounds for anti-depressant activity, mice are suspended by their tails to a metal or plastic rod using clip or scotch tape. The test is usually quite short, 5-7 min, and the amount of time the mice spend immobile is recorded either manually or with an automated device. Agents which have antidepressant activity, decrease the duration of immobility of mice in this test.
The basic apparatus for the tail suspension assay consisted of a yellow plastic chamber (91×45×10 cm) divided for four arenas 25, 20, 20 and 25 cm wide separated by yellow plastic walls 0.75 cm thick. Mice were suspended by their tails using a rubber clip (7 cm long) attached to the plastic rod that was placed on the top of a testing chamber half way through its deep dimension. Each experimental session was videotaped and analyzed for four animals in the real time by computer software (“Depression Scan” Clever Sys Inc.). The computer justification of immobility was calibrated with the use of animals dosed with lorazepam while justification of movement was calibrated with the high dose of desipramine treated animals. […] The settings were adjusted separately for dark (CH3/HeJ and C57BI/6J strains) and white mice (Balb/cJ and A/J strains). A yellow background was used for dark mice and a blue background was used to record movements of white mice.
The ability of a test compound to decrease the duration of immobility, or increase mobility was measured using the TST procedure described above.
Data were analyzed using GraphPad Prism software (GraphPad Software, Inc. San Diego, Calif.). For the comparison of the effect of different doses for various drugs on immobility in the TST one-way analyses of variance (ANOVA) were used followed by Dunnett's multiple comparison test. […] The ED50 and Emax values were compared using two-way ANOVA and Bonferroni post-hoc test.
Positive controls included duloxetine (DLX), venlafaxine (VLX) and desipramine (DMI) which were dissolved in 0.5% methylcellulose and lorazepam (LOR) which was suspended in 0.5% of methylcellulose in water by sonication. All drugs and vehicles were administered orally (p.o.) by gavage in a volume of 10 mL/kg.
The mice were ordered 5 weeks old and at the beginning of experiment their weight was 20±5 g. Animals were housed in groups of four in plastic cages at an ambient temperature of 21° C. to 23° C. with an automated 12/12 hours light/dark cycle and access to water and a commercial rodent food ad libitum.
Each experiment consisted of seven treatment groups with four animals per group. A total of 28 animals per experiment were used. Every two consecutive experiments (1 & 2, 3 & 4, 5 & 6 and 7 & 8) were exact replicas of each other. […] One treatment group of four animals in each experiment was a vehicle treated group. In addition to the vehicle treated group, the effects of DMI at 6 mg/kg, 12 mg/kg, 30 mg/kg, 60 mg/kg and 120 mg/kg and LOR at 5 mg/kg were tested in experiments 1 and 2. […] In experiments 5 and 6 the effects of DLX at 6 mg/kg, 12 mg/kg, 30 mg/kg, 60 mg/kg, 120 mg/kg and LOR at 5 mg/kg were tested.

[3] = test system: Sprague Dawley rats; experiment: Forced Swim Test (Acute); type: in vivo, rat
Procedure: The Forced Swim test (FST) is a commonly used procedure to screen compounds for possible antidepressant properties. This test is also known as the behavioral despair test. Rodents placed in […] tanks filled with water present a wide variety of escape or immobility behaviors. Antidepressant drugs from different classes markedly increase escape behaviors and/or decrease latency or duration of immobility.
Venlafaxine and desipramine were dissolved in water. All drugs and their vehicles were administered orally (p.o.) by gavage in a volume of 5 mL/kg.
Male Sprague Dawley rats (140 to 160 g) from Charles River Laboratories Wilmington, Mass. were used. The animals went through a five-day quarantine period before being subjected to the experimental procedure.
Animals were housed in groups of four in plastic cages at an ambient temperature of 21° C. to 23° C. with an automated 12 hour light/dark cycle and access to water and commercial rodent food ad libitum. Animals were not handled more than for the routine bedding change prior to pre-test swim session.
Each experiment consisted of seven treatment groups with n=4 animals per group. A total of 28 animals per experiment were used. Two consecutive experiments (1 and 2, 3 and 4, and 5 and 6) were exact replicas of each other. […] One treatment group of n=4 animals in each experiment was a vehicle treated group. […] In experiments 5 and 6 the effects of venlafaxine and maprotyline at 12 mg/kg, 30 mg/kg, and 60 mg/kg were tested.
The basic apparatus consisted of a cylinder (46 cm tall×˜20 cm diameter) filled with water to 30 cm deep, at a temperature of 25±1° C. The automated version of the FST was used to perform the experiments. Plumbing for automatic filling and emptying water connected the four cylinders. Cylinders were placed in the dividing chambers 25 cm wide to separate animals visually. Each 5-minute experimental session was videotaped and analyzed in real time by computer software (Clever Systems, Inc.) for four animals at a time. The immobility, swimming, climbing and escape times were recorded by the software. The four activities are defined as follow. Immobility: the animal floats motionlessly or makes only those movements necessary to keep its head above water; Climb: the animal vigorously moves vertically while scratching the wall around the cylinder; Swim: the animal moves horizontally around in the cylinder more than necessary to keep its head above water; and Escape: sum of all vigorous active movements.
The ability of a test compound to decrease the duration or frequency of immobility, or changes in swimming, climbing and escape times, was measured using the FST procedure described above. […] The analysis of the results in the studies described was focused on the immobility time during 5-minute test session.
There were two swim sessions in each experiment. First, a pre-test swim session for 15 minutes was performed. Following 48 hours later was a test session of 5-minute duration. Upon completion of a swim session, each animal was placed under a heat lamp in a cage with soft bedding for approximately 15 minutes to prevent hypothermia.
Animals were pre-treated with a vehicle or test compound after completing the pre-test swim session, then 24 hours later and then shortly prior to the 5-minute test session; i.e., three injections were given to each animal between the two swim sessions that occurred on 3 consecutive days.
Data were analyzed using GraphPad Prism software (GraphPad Software, Inc. San Diego, Calif.). For the comparison of the effect of different doses for various drugs on immobility in the FST one-way ANOVA was used followed by Dunnett's multiple comparison test. […] The ED50 and Emax values were statistically compared using two-tail t-test.

[4] = test system: submissive rats; experiment: Dominant-Submissive Relations (DSR) assay: Reduction of Submissive Behavior Model (RSBM) of depression; type: in vivo, rat
Procedure: (§1) The DSR assay is divided into two models: Reduction of Dominant Behavior Model (RDBM) of mania and Reduction of Submissive Behavior Model (RSBM) of depression. The RDBM, wherein the dominant animals are treated with test compound, is predictive of the ability of the test compound to treat mania. The RSBM, wherein the submissive animals are treated with test compound, is predictive of the ability of the test compound to treat depression.
(§2) Male Sprague Dawley rats (140 to 160 g) from Charles River Laboratories Wilmington, Mass. were used in this assay. Shipments of rats were received at two-week intervals. Each shipment went through five-day quarantine, one-week acclimation period, and one-week selection process, followed by five-weeks of drug or vehicle treatment to those pairs selected.
(§3) Rats were housed four per cage. Access to food was restricted to one hour per day after testing on Monday through Thursday. After testing on Friday, rats had free access to food until being fasted again on Sunday. At no time were the rats deprived of water. The food deprivation periods used had little effect on weight gain as the average weight of rats was about 300 g at the end of the study. At the conclusion of experiment rats were sacrificed by decapitation, the trunk blood and brains were collected for in vitro experiments and drug concentration measurements.
(§4) The basic testing apparatus consisted of two chambers connected with a tunnel only large enough to allow one rat to pass through at a time. On the floor, at the mid-point of the tunnel was a container of sweetened milk. This basic apparatus was replicated, so that a total of four pairs of rats can be video tracked simultaneously. The camera can distinguish rats marked by different colors. Thus, the rats' heads were colored for the purpose of video tracking, red in one cage and yellow in the other cage. Only one animal at a time can have comfortable access to the feeder, but both animals can drink milk during the five-minute daily session. During the five-minute daily sessions, time spent in the feeder zone by each rat was recorded by the video tracking software and saved into a text file.
The test began with a random assignment of rats into pairs. Each member of a pair was placed in an opposite chamber of the testing apparatus. The time spent in the feeder zone by each animal was recorded. During the first week (five days) of testing the animals habituate to the new environment. Dominance was assigned to the animal with the highest score during the second week of testing if three criteria were achieved. First, there must have been a significant difference (two-tailed t-test, P<0.05) between the average daily drinking scores of both animals. Second, the dominant animal score must have been at least 25% greater than the submissive animal's score. Finally, there must have been no “reversals” during the pair selection week where the putative submissive rat out-scored its dominant partner on isolated occasions. Ideally there were minimal reversals during the acclimation week as well. About twenty-five to thirty-three percent of the initial animal pairs achieved these criteria and only these pairs were continued in the study. […]
(§5) Significant differences between time spent on the feeder by dominant and submissive rats were determined by ANOVA using GraphPad Prism software (GraphPad Software, Inc. San Diego, Calif.) followed by a two-tailed t-test (P<0.05). Comparisons were made between treatment groups using normalized dominance level values in paired animals. The dominance level is a value that measures social relation between paired subjects. Dominance level (DL)=FTD−FTS where FTD is the feeder time of dominant rats and FTS is the feeder time of submissive rats. The normalization was conducted according to the formula: Dominance Level(week n in %)=(Dominance Level(week n))/(Dominance Level(week 2) […]

[5] = test system: dominant rats; experiment: Dominant-Submissive Relations (DSR) assay: Reduction of Dominant Behavior Model (RDBM) of mania; type: in vivo, rat
Procedure: as §1, §2, §3, §4
The test began with a random assignment of rats into pairs. Each member of a pair was placed in an opposite chamber of the testing apparatus. The time spent in the feeder zone by each animal was recorded. During the first week (five days) of testing the animals habituate to the new environment. Dominance was assigned to the animal with the highest score during the second week of testing if three criteria were achieved. First, there must have been a significant difference (two-tailed t-test, P<0.05) between the average daily drinking scores of both animals. Second, the dominant animal score must have been at least 25% greater than the submissive animal's score. Finally, there must have been no “reversals” during the pair selection week where the putative submissive rat out-scored its dominant partner on isolated occasions. Ideally there were minimal reversals during the acclimation week as well. About twenty-five to thirty-three percent of the initial animal pairs achieved these criteria and only these pairs were continued in the study.
as §5

Q: Which “seizure activity in the hippocampal kindling model” value (“seizure activity” below) [1] does the source give for NC(=O)N1c2ccccc2C=Cc2ccccc21 [Carbamazepine] here?
A: significantly suppressed seizure activity

Q: Which ED50 ([2]; read-out: Immobility ED50) does the source give for CNCC[C@H](Oc1cccc2ccccc12)c1cccs1 [DLX, duloxetine] here?
A: 31.4 mg/kg

Q: And the ED50 ([2]; read-out: Mobility ED50)?
A: 61.5 mg/kg

Q: What about the “Immobility Emax % of C” value [2] of the same compound?
A: 80.4 % of C

Q: And the “Mobility Emax % of C” value [2]?
A: 175.5 % of C

Q: For CNCCCN1c2ccccc2CCc2ccccc21 [DMI, desipramine], which “Immobility Emax % of C” value [2] is on record?
A: 38.5 % of C

Q: What about the “Mobility Emax % of C” value [2] of the same compound?
A: 195.7 % of C

Q: And the “Emax (immobility) in the FST” value ([3]; p.o.)?
A: 50.0 ± 8.4 s

Q: What about the “doses at which effect on immobility was statistically significant vs vehicle” value ([3]; p.o.) of the same compound?
A: 6 mg/kg, 12 mg/kg, 30 mg/kg, and 60 mg/kg

Q: With CCC1(C)CC(=O)NC1=O (stereo not shown) [Ethosuximide] as the compound, how does the “seizure activity” value [1] read?
A: ineffective

Q: Which “effect on the rats' immobility time” value ([3]; 1 mg/kg p.o., negative control) does the source give for O=C1Nc2ccc(Cl)cc2C(c2ccccc2Cl)=NC1O (stereo not shown) [Lorazepam, lorazepam] here?
A: no significant effect

Q: Which “seizure activity” value [1] does the source give for O=C1NC(=O)C(c2ccccc2)(c2ccccc2)N1 [Phenytoin] here?
A: significantly suppressed seizure activity

Q: CNCCC(Oc1ccc(C(F)(F)F)cc1)c1ccccc1 (stereo not shown) [fluoxetine, reference compound] was tested. Which “submissiveness during first week of treatment” value ([4]; fluoxetine 10 mg/kg i.p., Compound #8 treated groups p.o.) did it give?
A: increased submissiveness during first week of treatment

Q: What about the “significant difference between dominant and submissive rats lost” value ([4]; submissive rats treated i.p. at 10.0 mg/kg) of the same compound?
A: lost after third week of treatment

Q: Which “dominance level effect vs control” value ([5]; 100 mg/kg) does the source give for [Cl-].[Li+] [lithium chloride, reference compound] here?
A: significantly different from control only after the third week of treatment

Q: With CNCCCC12CCC(c3ccccc31)c1ccccc12 [maprotyline] as the compound, how does the “doses at which effect on immobility was statistically significant vs vehicle” value ([3]; p.o.) read?
A: 30 mg/kg and 60 mg/kg

Q: What does the source list for CCCC(CCC)C(=O)[O-].[Na+] [sodium valproate, reference compound]?
A: dominance level ([5]; 30 mg/kg i.p. QD): decreased dominance level after the second week of treatment; difference between dominant and submissive rats lost ([5]; dominant rats treated i.p. QD at 30 mg/kg): lost after first week of treatment; permissiveness of the treated dominant rats ([5]; treated dominant rats permitted submissive partners to increase time on the feeder): observed to increase

Source: patent publication US8937096B2, “Use of benzo-fused heterocyle sulfamide derivatives for the treatment of mania and bipolar disorder” (priority 2005, dated 2015)
